# Reference: patent US20080275058A1, “N-Substituted-1H-Quinoline-2,4-Diones, Preparation Method Thereof, And Pharmaceutical Composition Containing The Same” (KOREA RESEARCH INSTITUTE OF CHEMICAL TECHNOLOGY, priority 2005, published 2008)
# Like-named read-outs stand apart in the source and are kept apart here.
# Tests used:
# D1 = D1 (Homo sapiens, UniProt P21728); test: Radioligand binding, dopamine D1; conditions: Table 4; read-out: Binding affinity, IC50 (nM) D1
# 5-HT2c = target: T1, 5-HT2c (Homo sapiens, UniProt P28335); test: Radioligand binding, 5-HT2c ([3H]Mesulergine); conditions: Table 4; [3H]Mesulergine 1 nM; read-out: Binding affinity, IC50 (nM) 5-HT2c
# T1 construct: purchased Euroscreen/BioSignal Packard Inc
# T1 sequence (P28335 33-458): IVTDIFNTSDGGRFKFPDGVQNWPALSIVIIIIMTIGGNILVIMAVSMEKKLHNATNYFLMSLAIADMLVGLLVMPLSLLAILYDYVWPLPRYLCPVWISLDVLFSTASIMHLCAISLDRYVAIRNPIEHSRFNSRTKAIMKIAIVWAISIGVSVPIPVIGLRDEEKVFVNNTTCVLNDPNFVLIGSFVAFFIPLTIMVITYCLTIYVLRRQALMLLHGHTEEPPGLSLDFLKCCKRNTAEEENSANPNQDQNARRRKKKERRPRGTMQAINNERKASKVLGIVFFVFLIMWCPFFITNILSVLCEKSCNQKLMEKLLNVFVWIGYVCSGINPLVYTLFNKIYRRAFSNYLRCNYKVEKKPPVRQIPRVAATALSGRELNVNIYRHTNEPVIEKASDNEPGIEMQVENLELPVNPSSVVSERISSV
# hD2L = target: T2, hD2L (Homo sapiens, UniProt P14416); test: Radioligand binding, dopamine D2 ([3H]spiperone); conditions: Table 4; [3H]spiperone 1 nM; read-out: Binding affinity, IC50 (nM) D2
# T2 construct: purchased BioSignal Packard Inc., Montreal, Canada
# Procedure: (§1) 2-2: Binding assays of Dopamine Receptor Family
# (§2) The radioligands used were [^3H] spiperone (for hD2L and hD3 receptors, 1 nM) and [^3H] YM-09151-2 (for hD4.2 receptor, 0.06 nM). Radioligand bindings were performed by the protocols provided by the supplier of receptor membranes (BioSignal Packard Inc., Montreal, Canada). Briefly, the buffer used in D2 or D3 receptor binding assay was 50 mM Tris-HCl (pH 7.4), 10 mM MgCl2, 1 mM EDTA, or 50 mM Tris-HCl (pH 7.4), 5 mM MgCl2, 5 mM EDTA, 5 mM KCl, 1.5 mM CaCl2, 120 mM NaCl, respectively. In [^3H] YM-09151-2 receptor binding assays, the buffer containing 50 mM Tris-HCl (pH 7.4), 5 mM MgCl2, 5 mM EDTA, 5 mM KCl and 1.5 mM CaCl2 was used. […] Competition binding studies were carried out with 7-8 concentrations of the test compound run in duplicate tubes, and isotherms from three assays were calculated by computerized nonlinear regression analysis (GraphPad Prism Program, San Diego, […]) to yield median inhibitory concentration (IC50) values.
# hD4.2 receptor = target: T3, hD4.2 receptor (Homo sapiens, UniProt P21917, DEL265-296); test: Radioligand binding, dopamine D4 ([3H]YM-09151-2); conditions: Table 4; [3H]YM-09151-2 0.06 nM; read-out: Binding affinity, IC50 (nM) D4
# T3 construct: purchased BioSignal Packard Inc., Montreal, Canada
# T3 sequence (P21917 with tags, fused parts or gaps DEL265-296): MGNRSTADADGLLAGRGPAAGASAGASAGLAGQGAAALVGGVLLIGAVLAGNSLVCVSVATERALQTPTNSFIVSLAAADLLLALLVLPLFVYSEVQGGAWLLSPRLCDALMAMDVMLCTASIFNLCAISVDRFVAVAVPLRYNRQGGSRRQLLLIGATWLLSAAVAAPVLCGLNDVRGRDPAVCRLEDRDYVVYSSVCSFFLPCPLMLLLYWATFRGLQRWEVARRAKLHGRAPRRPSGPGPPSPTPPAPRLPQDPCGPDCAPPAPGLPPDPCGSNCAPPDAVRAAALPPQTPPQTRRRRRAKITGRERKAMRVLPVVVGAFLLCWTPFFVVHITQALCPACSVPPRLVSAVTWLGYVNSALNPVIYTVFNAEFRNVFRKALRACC
# Procedure: as §1, §2
# [1] = target: T4, Human serotonin 5-HT6 receptor (Homo sapiens, UniProt P50406); test: [3H]LSD binding assay on cloned 5-HT6 receptor membranes; conditions: for binding affinity at 5-HT6 receptor labeled by [3H]LSD, in words: comment on Table 2
# T4 construct: made in house; host or cells: insect Sf21 cells (baculovirus vector BacPAK8)
# hD3 = target: T5, hD3 (Homo sapiens, UniProt P35462); test: Radioligand binding, dopamine D3 ([3H]spiperone); conditions: Table 4; [3H]spiperone 1 nM; read-out: Binding affinity, IC50 (nM) D3
# T5 construct: purchased BioSignal Packard Inc., Montreal, Canada
# Procedure: as §1, §2
# 5-HT7 = target: T6, 5-HT7 (Homo sapiens, UniProt P34969); test: Radioligand binding, 5-HT7 ([3H]LSD); conditions: Table 4; [3H]LSD 3 nM; read-out: Binding affinity, IC50 (nM) 5-HT7
# T6 construct: purchased Euroscreen/BioSignal Packard Inc
# 5-HT2a = target: T7, 5-HT2a (Homo sapiens, UniProt P28223); test: Radioligand binding, 5-HT2a ([3H]Ketanserin); conditions: Table 4; [3H]Ketanserin 1 nM; read-out: Binding affinity, IC50 (nM) 5-HT2a
# T7 construct: purchased Euroscreen/BioSignal Packard Inc
# 5-HT1a = target: T8, 5-HT1a (Homo sapiens, UniProt P08908); test: Radioligand binding, 5-HT1a ([3H]8-OH-DPAT); conditions: Table 4; [3H]8-OH-DPAT 0.5 nM; read-out: Binding affinity, IC50 (nM) 5-HT1a
# T8 construct: purchased Euroscreen/BioSignal Packard Inc
# T8 sequence (P08908 1-422): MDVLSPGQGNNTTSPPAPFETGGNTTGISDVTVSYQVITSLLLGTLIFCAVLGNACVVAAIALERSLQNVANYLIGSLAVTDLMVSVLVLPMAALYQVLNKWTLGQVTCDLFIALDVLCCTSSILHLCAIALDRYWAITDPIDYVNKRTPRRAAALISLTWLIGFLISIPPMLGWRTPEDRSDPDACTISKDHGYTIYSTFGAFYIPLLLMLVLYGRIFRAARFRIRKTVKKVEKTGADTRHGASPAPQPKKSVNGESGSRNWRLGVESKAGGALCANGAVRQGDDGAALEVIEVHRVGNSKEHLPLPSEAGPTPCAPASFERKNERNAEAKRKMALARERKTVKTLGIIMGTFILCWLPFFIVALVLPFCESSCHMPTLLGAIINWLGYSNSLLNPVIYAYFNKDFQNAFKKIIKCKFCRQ
# Procedure: Radioligand bindings were performed according to the test method provided by the supplier of receptor membrane (Euroscreen/BioSignal Packard Inc.). The detailed assay conditions and the results were shown in the following Table 3 and Table 4, respectively.
# [2] = Table 2, 1.87 nM [3H]LSD, 37 C, 60 min, read-out: IC50 (nM), binding affinity to the 5-HT6 receptor
# [3] = Table 4, read-out: Binding affinity, IC50 (nM) 5-HT6
# Sequence of D1 (P21728 whole entry): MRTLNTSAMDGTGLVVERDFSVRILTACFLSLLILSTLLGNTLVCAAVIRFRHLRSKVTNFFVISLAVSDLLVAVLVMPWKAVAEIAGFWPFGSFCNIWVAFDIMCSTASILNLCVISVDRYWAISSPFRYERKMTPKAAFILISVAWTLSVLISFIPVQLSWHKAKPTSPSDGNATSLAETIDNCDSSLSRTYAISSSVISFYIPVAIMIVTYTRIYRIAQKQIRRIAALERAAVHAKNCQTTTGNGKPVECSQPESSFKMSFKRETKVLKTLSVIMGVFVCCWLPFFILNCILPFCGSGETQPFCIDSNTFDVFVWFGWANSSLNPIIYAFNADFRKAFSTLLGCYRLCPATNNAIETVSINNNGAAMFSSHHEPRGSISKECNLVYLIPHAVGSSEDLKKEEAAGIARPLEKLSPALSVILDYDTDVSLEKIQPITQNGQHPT
# T4 sequence (P50406 whole entry): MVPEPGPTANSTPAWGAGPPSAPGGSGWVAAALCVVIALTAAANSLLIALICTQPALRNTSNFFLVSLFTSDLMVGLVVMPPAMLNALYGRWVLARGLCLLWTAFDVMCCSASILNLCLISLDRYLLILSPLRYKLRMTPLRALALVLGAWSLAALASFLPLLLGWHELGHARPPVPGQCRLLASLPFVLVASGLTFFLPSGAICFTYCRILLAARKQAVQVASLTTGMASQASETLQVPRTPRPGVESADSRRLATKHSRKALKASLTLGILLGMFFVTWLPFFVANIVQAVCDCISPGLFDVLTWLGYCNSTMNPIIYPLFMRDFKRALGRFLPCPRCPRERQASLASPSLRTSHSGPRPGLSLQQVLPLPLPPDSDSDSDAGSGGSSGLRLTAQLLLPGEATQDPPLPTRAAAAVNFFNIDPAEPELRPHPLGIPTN
# T6 sequence (P34969 whole entry): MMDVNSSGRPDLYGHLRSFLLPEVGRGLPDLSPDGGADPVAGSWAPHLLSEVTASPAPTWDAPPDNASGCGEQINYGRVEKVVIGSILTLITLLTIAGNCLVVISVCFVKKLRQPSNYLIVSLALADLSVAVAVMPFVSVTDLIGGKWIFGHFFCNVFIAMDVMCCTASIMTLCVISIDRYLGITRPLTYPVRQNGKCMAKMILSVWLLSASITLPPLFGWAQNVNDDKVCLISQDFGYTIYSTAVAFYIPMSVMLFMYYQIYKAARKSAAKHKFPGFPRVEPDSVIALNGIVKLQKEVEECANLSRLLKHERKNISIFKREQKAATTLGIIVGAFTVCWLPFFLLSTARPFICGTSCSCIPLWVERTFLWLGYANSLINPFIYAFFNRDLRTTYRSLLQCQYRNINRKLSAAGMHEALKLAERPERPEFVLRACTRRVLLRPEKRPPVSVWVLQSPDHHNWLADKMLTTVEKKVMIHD
# T7 sequence (P28223 whole entry): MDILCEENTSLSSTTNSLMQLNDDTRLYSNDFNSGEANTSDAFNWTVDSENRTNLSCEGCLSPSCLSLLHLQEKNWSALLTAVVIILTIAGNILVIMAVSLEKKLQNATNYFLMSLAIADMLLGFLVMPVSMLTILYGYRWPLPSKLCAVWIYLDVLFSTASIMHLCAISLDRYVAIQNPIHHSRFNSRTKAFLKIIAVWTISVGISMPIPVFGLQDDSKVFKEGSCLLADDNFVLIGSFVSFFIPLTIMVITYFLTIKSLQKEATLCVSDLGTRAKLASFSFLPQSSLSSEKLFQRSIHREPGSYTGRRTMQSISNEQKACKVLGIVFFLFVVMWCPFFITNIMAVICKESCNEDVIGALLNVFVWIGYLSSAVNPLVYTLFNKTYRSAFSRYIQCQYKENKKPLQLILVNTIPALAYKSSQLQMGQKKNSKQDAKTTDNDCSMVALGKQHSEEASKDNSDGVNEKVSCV
# T2 sequence (P14416 whole entry): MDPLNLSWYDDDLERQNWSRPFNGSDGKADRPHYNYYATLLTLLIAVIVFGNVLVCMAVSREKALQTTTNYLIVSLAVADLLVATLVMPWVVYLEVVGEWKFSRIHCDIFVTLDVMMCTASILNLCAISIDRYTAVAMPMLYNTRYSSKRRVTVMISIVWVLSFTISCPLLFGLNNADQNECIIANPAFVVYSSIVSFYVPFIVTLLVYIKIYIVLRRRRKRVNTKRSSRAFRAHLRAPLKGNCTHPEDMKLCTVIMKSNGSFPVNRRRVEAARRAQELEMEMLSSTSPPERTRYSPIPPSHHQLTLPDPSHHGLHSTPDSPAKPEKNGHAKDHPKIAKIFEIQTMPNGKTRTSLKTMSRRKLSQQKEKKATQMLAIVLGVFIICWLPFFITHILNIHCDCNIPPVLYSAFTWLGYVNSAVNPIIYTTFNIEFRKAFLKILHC
# T5 sequence (P35462 whole entry): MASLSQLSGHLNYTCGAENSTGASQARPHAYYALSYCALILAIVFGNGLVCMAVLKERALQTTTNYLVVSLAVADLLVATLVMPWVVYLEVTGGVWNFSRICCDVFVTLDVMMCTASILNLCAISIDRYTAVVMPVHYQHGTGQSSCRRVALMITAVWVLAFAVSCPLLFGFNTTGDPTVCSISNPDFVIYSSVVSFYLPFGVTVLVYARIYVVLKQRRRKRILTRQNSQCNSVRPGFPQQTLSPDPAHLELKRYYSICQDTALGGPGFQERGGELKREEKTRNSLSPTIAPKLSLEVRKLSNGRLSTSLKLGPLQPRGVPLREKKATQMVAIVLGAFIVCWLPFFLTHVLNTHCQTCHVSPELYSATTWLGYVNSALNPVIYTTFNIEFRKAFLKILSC
SMILES,IC50 (D1),IC50 (5-HT2c),IC50 (hD2L),IC50 (hD4.2 receptor),"IC50 [1, 2]","IC50 [1, 3]",IC50 (hD3),IC50 (5-HT7),IC50 (5-HT2a),IC50 (5-HT1a),melting point,"binding affinity at 5-HT6 receptor labeled by [3H]LSD, in words [1]"
"CC1(c2ccc([N+](=O)[O-])cc2)C(=O)c2c(N3CCNCC3)cc(Cl)cc2N(Cc2ccccc2)C1=O (stereo not shown) [Example 15, 1-Benzyl-7-chloro-3-methyl-3-(4-nitro-phenyl)-5-piperazin-1-yl-1H-quinoline-2,4-dione]",5810 nM,9950 nM,6660 nM,9460 nM,12.1 nM,15.2 nM,9740 nM,9510 nM,8120 nM,6350 nM,145 to 146 °C,
"CC1(c2ccc(Cl)cc2)C(=O)c2c(N3CCNCC3)cc(Cl)cc2N(Cc2ccccc2)C1=O (stereo not shown) [Example 19, 1-Benzyl-7-chloro-3-(4-chloro-phenyl)-3-methyl-5-piperazin-1-yl-1H-quinoline-2,4-dione]",7040 nM,6910 nM,8450 nM,8090 nM,2.3 nM,15.3 nM,9140 nM,7570 nM,9100 nM,6550 nM,135 to 136 °C,
"CC1(c2ccc(Br)cc2)C(=O)c2c(N3CCNCC3)cc(Cl)cc2N(Cc2ccccc2)C1=O (stereo not shown) [Example 20, 1-Benzyl-3-(4-bromo-phenyl)-7-chloro-3-methyl-5-piperazin-1-yl-1H-quinoline-2,4-dione]",8540 nM,> 10000 nM,8250 nM,8990 nM,1.9 nM,18.2 nM,9380 nM,6840 nM,5700 nM,6360 nM,116 to 117 °C,significant affinities
"COc1ccc(C2(C)C(=O)c3c(N4CCNCC4)cc(Cl)cc3N(Cc3cccc([N+](=O)[O-])c3)C2=O)cc1 (stereo not shown) [Example 23, 7-Chloro-3-(4-methoxy-phenyl)-3-methyl-1-(3-nitro-benzyl)-5-piperazin-1-yl-1H quinoline-2,4-dione]",7640 nM,8400 nM,6930 nM,9090 nM,2.7 nM,16.7 nM,9650 nM,8450 nM,6480 nM,9010 nM,153 to 154 °C,
"COc1ccc(C2(C)C(=O)c3c(N4CCNCC4)cc(Cl)cc3N(Cc3cccc(N)c3)C2=O)cc1 (stereo not shown) [Example 25, 1-(3-Amino-benzyl)-7-chloro-3-(4-methoxy-phenyl)-3-methyl-5-piperazin-1yl-1H-quinoline-2,4-dione]",6520 nM,7600 nM,7650 nM,9750 nM,6.2 nM,15.9 nM,9660 nM,8050 nM,6610 nM,5890 nM,183 to 184 °C,
"COc1ccc(C2(C)C(=O)c3c(N4CCNCC4)cc(Cl)cc3N(Cc3ccccc3OC)C2=O)cc1 (stereo not shown) [Example 29, 7-Chloro-1-(2-methoxy-benzyl)-3-(4-methoxy-phenyl)-3-methyl-5-piperazin-1-yl-1H-quinoline-2,4-dione]",7810 nM,8050 nM,9170 nM,9000 nM,34.2 nM,15 nM,9410 nM,7500 nM,9150 nM,7580 nM,153 to 155 °C,
"COc1ccc(CN2C(=O)C(C)(c3ccc(OC)cc3)C(=O)c3c(N4CCNCC4)cc(Cl)cc32)cc1 (stereo not shown) [Example 31, 7-Chloro-1-(4-methoxy-benzyl)-3-(4-methoxy-phenyl)-3-methyl-5-piperazin-1-yl-1H-quinoline-2,4-dione]",7550 nM,7950 nM,6430 nM,8710 nM,26.5 nM,21.3 nM,8950 nM,8440 nM,8340 nM,6950 nM,182 to 183 °C,
"CC1(c2ccc(O)cc2)C(=O)c2c(N3CCNCC3)cc(Cl)cc2N(Cc2ccc(O)cc2)C1=O (stereo not shown) [Example 32, 7-Chloro-1-(4-hydroxy-benzyl)-3-(4-hydroxy-phenyl)-3-methyl-5-piperazin-1-yl-1H-quinoline-2,4-dione]",9010 nM,7890 nM,6960 nM,9450 nM,1.7 nM,15.2 nM,9110 nM,8310 nM,7450 nM,6580 nM,241 to 242 °C,significant affinities
"COc1ccc(C2(C)C(=O)c3c(N4CCNCC4)cc(Cl)cc3N(Cc3ccccc3Br)C2=O)cc1 (stereo not shown) [Example 35, 1-(2-Bromo-benzyl)-7-chloro-3-(4-methoxy-phenyl)-3-methyl-5-piperazin-1-yl-1H-quinoline-2,4-dione]",9750 nM,7720 nM,7150 nM,8880 nM,9.2 nM,16.4 nM,9450 nM,7820 nM,7640 nM,9510 nM,150 to 151 °C,
"CC1(c2ccc(O)cc2)C(=O)c2c(N3CCNCC3)cc(Cl)cc2N(Cc2ccccc2Br)C1=O (stereo not shown) [Example 36, 1-(2-Bromo-benzyl)-7-chloro-3-(4-hydroxy-phenyl)-3-methyl-5-piperazin-1-yl-1H-quinoline-2,4-dione]",6030 nM,7160 nM,7990 nM,9000 nM,29 nM,15.1 nM,9610 nM,> 10000 nM,6210 nM,9320 nM,264 to 265 °C,
